According to patent publication US9179694B2, “Method and composition for enhancing milk production and milk component concentrations” (PURINA ANIMAL NUTRITION LLC, priority 2003, dated 2015):
Marks after values point to notes of the source that are not given here.

Test: Fat content of produced milk in sorbitol feeding trials
Format: in vivo, Holstein cows
Conditions: for Fat in Produced Milk: Pre-Partum Trial #1 (75/0/0 g/day in wk −3..−1/+1..+4/+5..+8)
Method: To determine the weight percent total fat, wet basis, in a sample, the actual weight of fat in the sample is determined in accordance with Method #974.09 (33.7.18) of Official Methods of Analysis, Association of Official Analytical Chemists (AOAC) (16th Ed., 1995). The weight percent total fat, wet basis, is then calculated by dividing the actual weight of fat in the sample by the actual weight of the sample. Each cow of each of the six different trials (Control Trial #1, Control Trial #2, Pre-Partum Trial #1, Pre-Partum Trial #2, Pre/Post Trial #1, and Pre/Post Trial #2) was milked three times daily and the weight of produced milk by each cow was recorded at each milking. The milk from each cow was sampled once per week (⅓ of the sample volume from each of the three milkings occurring on the weekly milk sampling day) and was analyzed for true protein, total fat, lactose, and total solids, as detailed in the property determination and characterization techniques presented above. Additionally, samples of blood were periodically obtained from each cow during the four trials (Control Trial 2, Pre-Partum Trial #2, Pre/Post Trial #1, and Pre/Post Trial #2) encompassed in Example Two and were analyzed for non-esterified fatty acid (NEFA) content as detailed in the property determination and characterization techniques presented above. No NEFA analysis was conducted on the cows employed in Control Trial #1 or Pre-Partum Trial #1 that are the subject of Example One. Example One includes Control Trial #1 and Pre-Partum Trial #1. Both primiparious cows and multiparious cows were included in Control Trial #1 and Pre-Partum Trial #1. Five primiparious cows and fifteen multiparious cows were included in Control Trial #1; likewise, five primiparious cows and fifteen multiparious cows were included in Pre-Partum Trial #1. All cows included in Control Trial #1 and Pre-Partum Trial #1 were Holsteins. Example Two includes Control Trial #2, Pre-Partum Trial #2, Pre/Post Trial #1, and Pre/Post Trial #2. Only multiparious, Holstein cows were included in Control Trial #2, […], Pre/Post Trial #1, and Pre/Post Trial #2. Eighteen multiparious cows were included in both Control Trial #2 and Pre-Partum Trial #2, while sixteen multiparious cows were included in Pre/Post Trial #1 and seventeen multiparious cows were included in Pre/Post Trial #2.

**Q.** What does the source list for `OC[C@@H](O)[C@@H](O)[C@H](O)[C@@H](O)CO` [sorbitol]?
**A.** Fat in Produced Milk (multiparious cows, weeks +1 through +8): 3.50 wt %; Fat in Produced Milk (primiparious cows, weeks +1 through +8): 4.2 wt %; increase in fat concentration in the produced milk (Pre-Partum Trial #1 (75 g/day wk −3..−1 only) versus Control Trial #1, primiparious cows, weeks +1 through +8): 11.7%; Fat Content of Produced Milk (Pre-Partum Trial #2 (75/0/100 g/day in wk −3..−1/+1..+4/+5..+8), multiparious cows, week +1): 4.91^a weight %; Fat Content of Produced Milk (Pre-Partum Trial #2 (75/0/100 g/day in wk −3..−1/+1..+4/+5..+8), multiparious cows, week +2): 4.50 weight %; Fat Content of Produced Milk (Pre-Partum Trial #2 (75/0/100 g/day in wk −3..−1/+1..+4/+5..+8), multiparious cows, week +3): 4.09 weight %; Fat Content of Produced Milk (Pre-Partum Trial #2 (75/0/100 g/day in wk −3..−1/+1..+4/+5..+8), multiparious cows, week +4): 3.41^a weight %; Fat Content of Produced Milk (Pre-Partum Trial #2 (75/0/100 g/day in wk −3..−1/+1..+4/+5..+8), multiparious cows, week +5): 3.35 weight %; Fat Content of Produced Milk (Pre-Partum Trial #2 (75/0/100 g/day in wk −3..−1/+1..+4/+5..+8), multiparious cows, week +6): 3.17^a weight %; Fat Content of Produced Milk (Pre-Partum Trial #2 (75/0/100 g/day in wk −3..−1/+1..+4/+5..+8), multiparious cows, week +7): 3.29 weight %; Fat Content of Produced Milk (Pre-Partum Trial #2 (75/0/100 g/day in wk −3..−1/+1..+4/+5..+8), multiparious cows, week +8): 3.34^ab weight %; Fat Content of Produced Milk (Pre-Partum Trial #2 (75/0/100 g/day in wk −3..−1/+1..+4/+5..+8), multiparious cows, weeks +1 through +4): 4.23^a weight %; Fat Content of Produced Milk (Pre-Partum Trial #2 (75/0/100 g/day in wk −3..−1/+1..+4/+5..+8), multiparious cows, weeks +1 through +8): 3.75^a weight %; Fat Content of Produced Milk (Pre-Partum Trial #2 (75/0/100 g/day in wk −3..−1/+1..+4/+5..+8), multiparious cows, weeks +5 through +8): 3.27^ab weight %; Fat Content of Produced Milk (Pre/Post Trial #1 (150/125/100 g/day in wk −3..−1/+1..+4/+5..+8), multiparious cows, week +1): 5.49^ab weight %; Fat Content of Produced Milk (Pre/Post Trial #1 (150/125/100 g/day in wk −3..−1/+1..+4/+5..+8), multiparious cows, week +1, two-trial comparison with Control Trial #2 (Table 23)): 5.49 weight %; Fat Content of Produced Milk (Pre/Post Trial #1 (150/125/100 g/day in wk −3..−1/+1..+4/+5..+8), multiparious cows, week +2): 4.41 weight %; Fat Content of Produced Milk (Pre/Post Trial #1 (150/125/100 g/day in wk −3..−1/+1..+4/+5..+8), multiparious cows, week +2, two-trial comparison with Control Trial #2 (Table 23)): 4.41 weight %; Fat Content of Produced Milk (Pre/Post Trial #1 (150/125/100 g/day in wk −3..−1/+1..+4/+5..+8), multiparious cows, week +3): 4.22 weight %; Fat Content of Produced Milk (Pre/Post Trial #1 (150/125/100 g/day in wk −3..−1/+1..+4/+5..+8), multiparious cows, week +3, two-trial comparison with Control Trial #2 (Table 23)): 4.22 weight %; Fat Content of Produced Milk (Pre/Post Trial #1 (150/125/100 g/day in wk −3..−1/+1..+4/+5..+8), multiparious cows, week +4): 4.01^b weight %; Fat Content of Produced Milk (Pre/Post Trial #1 (150/125/100 g/day in wk −3..−1/+1..+4/+5..+8), multiparious cows, week +4, two-trial comparison with Control Trial #2 (Table 23)): 4.01 weight %; Fat Content of Produced Milk (Pre/Post Trial #1 (150/125/100 g/day in wk −3..−1/+1..+4/+5..+8), multiparious cows, week +5): 3.71 weight %; Fat Content of Produced Milk (Pre/Post Trial #1 (150/125/100 g/day in wk −3..−1/+1..+4/+5..+8), multiparious cows, week +5, two-trial comparison with Control Trial #2 (Table 23)): 3.71 weight %; Fat Content of Produced Milk (Pre/Post Trial #1 (150/125/100 g/day in wk −3..−1/+1..+4/+5..+8), multiparious cows, week +6): 3.69^b weight %; Fat Content of Produced Milk (Pre/Post Trial #1 (150/125/100 g/day in wk −3..−1/+1..+4/+5..+8), multiparious cows, week +6, two-trial comparison with Control Trial #2 (Table 23)): 3.69 weight %; Fat Content of Produced Milk (Pre/Post Trial #1 (150/125/100 g/day in wk −3..−1/+1..+4/+5..+8), multiparious cows, week +7): 3.45 weight %; Fat Content of Produced Milk (Pre/Post Trial #1 (150/125/100 g/day in wk −3..−1/+1..+4/+5..+8), multiparious cows, week +7, two-trial comparison with Control Trial #2 (Table 23)): 3.45 weight %; Fat Content of Produced Milk (Pre/Post Trial #1 (150/125/100 g/day in wk −3..−1/+1..+4/+5..+8), multiparious cows, week +8): 3.68^b weight %; Fat Content of Produced Milk (Pre/Post Trial #1 (150/125/100 g/day in wk −3..−1/+1..+4/+5..+8), multiparious cows, week +8, two-trial comparison with Control Trial #2 (Table 23)): 3.68 weight %; Fat Content of Produced Milk (Pre/Post Trial #1 (150/125/100 g/day in wk −3..−1/+1..+4/+5..+8), multiparious cows, weeks +1 through +4): 4.53^ab weight %; Fat Content of Produced Milk (Pre/Post Trial #1 (150/125/100 g/day in wk −3..−1/+1..+4/+5..+8), multiparious cows, weeks +1 through +4, two-trial comparison with Control Trial #2 (Table 23)): 4.53 weight %; Fat Content of Produced Milk (Pre/Post Trial #1 (150/125/100 g/day in wk −3..−1/+1..+4/+5..+8), multiparious cows, weeks +1 through +8): 4.09^ab weight %; Fat Content of Produced Milk (Pre/Post Trial #1 (150/125/100 g/day in wk −3..−1/+1..+4/+5..+8), multiparious cows, weeks +1 through +8, two-trial comparison with Control Trial #2 (Table 23)): 4.09 weight %; Fat Content of Produced Milk (Pre/Post Trial #1 (150/125/100 g/day in wk −3..−1/+1..+4/+5..+8), multiparious cows, weeks +5 through +8): 3.63^b weight %; Fat Content of Produced Milk (Pre/Post Trial #1 (150/125/100 g/day in wk −3..−1/+1..+4/+5..+8), multiparious cows, weeks +5 through +8, two-trial comparison with Control Trial #2 (Table 23)): 3.63 weight %; increase in fat concentration in milk (Pre/Post Trial #1 (150/125/100 g/day) versus Control Trial #2, multiparious cows, weeks +1 through +8 (Table 23)): 7.3%; increase in fat concentration in milk (Pre/Post Trial #1 (150/125/100 g/day) versus Control Trial #2, multiparious cows, weeks +5 through +8 (Table 23)): 13.8%; greater fat concentration in milk (Pre/Post Trial #1 (150/125/100 g/day) versus Pre/Post Trial #2 (75/75/100 g/day), multiparious cows, week +8): 17.2%; Fat Content of Produced Milk (Pre/Post Trial #2 (75/75/100 g/day in wk −3..−1/+1..+4/+5..+8), multiparious cows, week +1): 6.23^b weight %; Fat Content of Produced Milk (Pre/Post Trial #2 (75/75/100 g/day in wk −3..−1/+1..+4/+5..+8), multiparious cows, week +2): 4.73 weight %; Fat Content of Produced Milk (Pre/Post Trial #2 (75/75/100 g/day in wk −3..−1/+1..+4/+5..+8), multiparious cows, week +3): 4.21 weight %; Fat Content of Produced Milk (Pre/Post Trial #2 (75/75/100 g/day in wk −3..−1/+1..+4/+5..+8), multiparious cows, week +4): 3.87^b weight %; Fat Content of Produced Milk (Pre/Post Trial #2 (75/75/100 g/day in wk −3..−1/+1..+4/+5..+8), multiparious cows, week +5): 3.89 weight %; Fat Content of Produced Milk (Pre/Post Trial #2 (75/75/100 g/day in wk −3..−1/+1..+4/+5..+8), multiparious cows, week +6): 3.48^ab weight %; Fat Content of Produced Milk (Pre/Post Trial #2 (75/75/100 g/day in wk −3..−1/+1..+4/+5..+8), multiparious cows, week +7): 3.47 weight %; Fat Content of Produced Milk (Pre/Post Trial #2 (75/75/100 g/day in wk −3..−1/+1..+4/+5..+8), multiparious cows, week +8): 3.14^a weight %; Fat Content of Produced Milk (Pre/Post Trial #2 (75/75/100 g/day in wk −3..−1/+1..+4/+5..+8), multiparious cows, weeks +1 through +4): 4.79^b weight %; Fat Content of Produced Milk (Pre/Post Trial #2 (75/75/100 g/day in wk −3..−1/+1..+4/+5..+8), multiparious cows, weeks +1 through +8): 4.13^b weight %; Fat Content of Produced Milk (Pre/Post Trial #2 (75/75/100 g/day in wk −3..−1/+1..+4/+5..+8), multiparious cows, weeks +5 through +8): 3.43^ab weight %; greater fat concentration in milk (Pre/Post Trial #2 (75/75/100 g/day) versus Pre-Partum Trial #2 (75/0/100 g/day), multiparious cows, weeks +1 through +4): 13.24%; greater fat concentration in milk (Pre/Post Trial #2 (75/75/100 g/day) versus Pre-Partum Trial #2 (75/0/100 g/day), multiparious cows, weeks +1 through +8): 10.1%; increase in fat concentration in milk (average of means of Pre-Partum Trial #2, Pre/Post Trial #1 and Pre/Post Trial #2 versus Control Trial #2, multiparious cows, weeks +1 through +8): 4.7%; increase in fat concentration in milk (average of means of Pre-Partum Trial #2, Pre/Post Trial #1 and Pre/Post Trial #2 versus Control Trial #2, multiparious cows, weeks +5 through +8): 7.9%
